# Results from patent publication US20250041461A1, “[177LU] LUTETIUM-PSMA I&T COMPOSITION AND DOSIMETRY, KIT, METHOD OF MAKING, AND METHOD OF USING THEREOF” (Curium US LLC, priority 2023, published 2025).
# Several values for one entry are separate records, joined by “and”; a condition that tells them apart may be missing. Identical values can stand only once.
# Key:
# [1] = Dosimetry sub-study, first 12 patients, cycle 1 (SPECT/CT, TIAC, OLINDA 2.2.3); format: in vivo, human; details: for dose estimate, Mean: Eclipse; for Extrapolation of Absorbed Dose to 6 Cycles Assuming 7.4 GBq per cycle: kidneys; for Kidneys Absorbed Dose Assuming 7.4 GBq per cycle: one cycle; for Effective Dose Cycle 1: whole body
# Procedure: Twelve subjects were administered a target activity of 7.4 GBq (mean 7.56±0.17 GBq) of [^177Lu]Lu-PSMA-I&T. Following the infusion, subjects underwent single photon emission computed tomography (SPECT)/computed tomography (CT) imaging at four timepoints (4 hours, 24 hours, 48 hours, and 168 hours). Image data was analyzed to compute time integrated activity coefficients (TIAC) in each organ of interest defined a priori in the independent review charter and in organs showing appreciable and meaningful [^177Lu]Lu-PSMA I&T activity. Segmented organs included kidneys, bladder, liver, lacrimal glands, salivary glands, intestine, lumbar vertebrae L2-L4, and whole body. To compute subject-specific organ doses, organ-level TIAC data were entered into Organ Level Internal Dose Assessment (OLINDA 2.2.3) and resulting organ doses for each target organ and whole-body effective dose were collated and averaged.
# Patients received SPECT/CT imaging (anatomical coverage included the salivary gland in most of the patients and extended through the pelvis) following the injection of 7.4 (±10%) GBq of [^177Lu]Lu-PSMA-I&T (detailed injected doses are reported in Table 36). All patients completed the first treatment cycle, and the acquisition of images was carried out. To note, for patient 37-016 the 168 hours SPECT/CT timepoint wasn't acquired, whereas patient 12-004 48 hours scan was presenting unrealistically high values, and the 48 hours scan was therefore excluded from further analysis.
# The imaging data was analyzed using Invicro's VivoQuant software, a validated software used in a 21 CFR § 11-compliant workflow. The general quantification approach was based on the principles detailed in the Medical Internal Radiation Dose (MIRD) Pamphlet No. 16, No 23, and No 26, as appropriate.
# Each SPECT image was co-registered with its corresponding CT. Image calibration was performed to convert the counts measured on the SPECT images to activity (Bq). The same SPECT/CT system was used in each patient for the entirety of the dosimetry study.
# Regions of interest (ROI) (kidneys, bladder, liver, lumbar vertebrae L2-L4, lacrimal glands, salivary glands (parotid and submandibular glands), and whole body) were drawn on each dataset by a trained image analyst. […] Lumbar vertebrae L2-L4 was delineated for all patients on the CT images to derive red marrow doses.^4 For kidneys, a ROI was drawn on the SPECT image encompassing all the uptake seen in the kidneys. Similarly for lacrimal glands, all the uptake observed on the SPECT image at the lacrimal glands' location was segmented. [^177Lu]Lu-PSMA-I&T distribution in a patient imaged over time is represented in FIG. 16.
# Time-activity curves of the activity in each ROI as a function of time were plotted. These curves were normalized by the known injected activity to arrive at units of fraction of injected activity. Calculations of time-integrated activity coefficient (TIAC, in units of hours) were performed for each region of interest listed above.
# Clearance of the tracer was derived from a data-appropriate fit of each organ time activity curve (TAC). Depending on the shape of the TAC, the data was fitted with the sum of one, two or three exponentials or using a rise and fall model. TIACs were calculated through analytical integration of the curve fit extrapolated to infinite. […] The remainder activity was determined by subtracting the cumulative organ TIACs from the whole body TIAC.
# Organ TIACs were inputted into Organ Level Internal Dose Assessment, OLINDA 2.2.3 for the computation of organ and whole-body absorbed doses and effective dose (computed using ICRP-103 weighing factors). ICRP-89 derived male phantom was used for dose estimation. Organs and body weights as defined by ICRP-89 were scaled based on height and mass using the patient effective mass. Kidney volumes were measured for each patient on the CT images and used for the kidneys mass of the ICRP-89 phantom assuming a density of 1 g/ml. […]
# [2] = tested on: prostate cancer; details: in vivo; cited from earlier work
# [3] = individual subjects, listed as [^177Lu]Lu-PSMA-I&T
smiles,measurement,setting,value
"O=C([O-])CC[C@H](NC(=O)N[C@@H](CCCCNC(=O)CCCCCCC(=O)NCCCC[C@@H](NC(=O)[C@@H](Cc1ccccc1)NC(=O)[C@@H](Cc1ccc(O)c(I)c1)NC(=O)CC[C@H](C(=O)[O-])N1CCN(CC(=O)[O-])CCN(CC(=O)[O-])CCN(CC(=O)[O-])CC1)C(=O)[O-])C(=O)[O-])C(=O)[O-].[177Lu+3].[H+].[H+].[H+].[H+].[H+] [^177Lu-PSMA I&T, (3S,7S,26R,29R,32R,37R)-29-benzyl-32-(4-hydroxy-3-iodobenzyl)-5,13,20,28,31,34-hexaoxo-37-(4,7,10-tris(carboxymethyl)-1,4,7,10-tetraazacyclododecan-1-yl)-4,6,12,21,27,30,33-heptaazaheptatriacontane-1,3,7,26,37-pentacarboxylic acid; lutetium-177 (III)]",Mean whole body effective dose,"[1]; 12 patients, cycle 1",0.095±0.048 mSv/MBq
same,"Whole-body time integrated activity coefficient, mean","[1]; 12 patients, cycle 1",24.1 ± 18.7 h
same,"absorbed dose, kidneys","[1]; 12 patients, cycle 1",0.43±0.18 Gy/GBq
same,"absorbed dose, lacrimal glands","[1]; 12 patients, cycle 1",0.67±0.33 Gy/GBq
same,"absorbed dose, left colon","[1]; 12 patients, cycle 1",0.54±0.42 Gy/GBq
same,"absorbed dose, rectum","[1]; 12 patients, cycle 1",0.52±0.40 Gy/GBq
same,"absorbed dose, red marrow","[1]; 12 patients, cycle 1",0.08±0.15 Gy/GBq
same,"absorbed dose, right colon","[1]; 12 patients, cycle 1",0.30±0.23 Gy/GBq
same,"absorbed dose, salivary glands","[1]; 12 patients, cycle 1",0.13±0.08 Gy/GBq
same,"absorbed dose, urinary bladder wall","[1]; 12 patients, cycle 1",0.38±0.03 Gy/GBq
same,"Whole-body time integrated activity coefficients, mean","[1]; 12 patients, cycle 1, 7.4 GBq",24.1 ± 18.7 h
same,"estimated absorbed dose for the kidneys after 6 cycles, max","[1]; 12 patients, 7.4 GBq per cycle",35.83 Gy
same,"estimated absorbed dose for the kidneys after 6 cycles, min","[1]; 12 patients, 7.4 GBq per cycle",9.9 Gy
same,estimated mean absorbed dose for the kidneys after 6 cycles,"[1]; 12 patients, 7.4 GBq per cycle, listed as [^177Lu]Lu-PSMA-I&T",19.3 Gy and 19.3±8.0 Gy
same,"Absorbed Dose, Mean","[1]; Adrenals, cycle 1, 12 patients",0.03 Gy/GBq
same,"Absorbed Dose, Mean","[1]; Brain, cycle 1, 12 patients",0.02 Gy/GBq
same,"Absorbed Dose, Mean","[1]; Esophagus, cycle 1, 12 patients",0.02 Gy/GBq
same,"Absorbed Dose, Mean","[1]; Eyes, cycle 1, 12 patients",0.02 Gy/GBq
same,"Absorbed Dose, Mean","[1]; Gallbladder Wall, cycle 1, 12 patients",0.02 Gy/GBq
same,"dose estimate, Mean",[1]; Heart Wall,0.02 Gy/GBq
same,"Absorbed Dose, Mean","[1]; Heart Wall, cycle 1, 12 patients",0.02 Gy/GBq
same,"dose estimate, Mean",[1]; Kidneys,0.43 Gy/GBq
same,"Absorbed Dose, Mean","[1]; Kidneys, cycle 1, 12 patients",0.43 Gy/GBq
same,"dose estimate, Mean",[1]; Lacrimal gland,0.67 Gy/GBq
same,"Absorbed Dose, Mean","[1]; Lacrimal glands (OLINDA sphere model), cycle 1",0.67 Gy/GBq
same,"dose estimate, Mean",[1]; Left colon,0.54 Gy/GBq
same,"Absorbed Dose, Mean","[1]; Left colon, cycle 1, 12 patients",0.54 Gy/GBq
same,"dose estimate, Mean",[1]; Liver,0.04 Gy/GBq
same,"Absorbed Dose, Mean","[1]; Liver, cycle 1, 12 patients",0.04 Gy/GBq
same,"Absorbed Dose, Mean","[1]; Lungs, cycle 1, 12 patients",0.02 Gy/GBq
same,"Absorbed Dose, Mean","[1]; Osteogenic Cells, cycle 1, 12 patients",0.05 Gy/GBq
same,"Absorbed Dose, Mean","[1]; Pancreas, cycle 1, 12 patients",0.02 Gy/GBq
same,"Absorbed Dose, Mean","[1]; Prostate, cycle 1, 12 patients",0.02 Gy/GBq
same,"dose estimate, Mean",[1]; Rectum,0.52 Gy/GBq
same,"Absorbed Dose, Mean","[1]; Rectum, cycle 1, 12 patients",0.52 Gy/GBq
same,"dose estimate, Mean",[1]; Red Marrow,0.08 Gy/GBq
same,"Absorbed Dose, Mean","[1]; Red Marrow, cycle 1, 12 patients",0.08 Gy/GBq
same,"dose estimate, Mean",[1]; Right colon,0.30 Gy/GBq
same,"Absorbed Dose, Mean","[1]; Right colon, cycle 1, 12 patients",0.30 Gy/GBq
same,"Absorbed Dose, Mean","[1]; Salivary Glands, cycle 1, 12 patients",0.13 Gy/GBq
same,"dose estimate, Mean",[1]; Salivary glands,0.13 Gy/GBq
same,"Absorbed Dose, Mean","[1]; Small Intestine, cycle 1, 12 patients",0.06 Gy/GBq
same,"dose estimate, Mean",[1]; Spleen,0.03 Gy/GBq
same,"Absorbed Dose, Mean","[1]; Spleen, cycle 1, 12 patients",0.03 Gy/GBq
same,"Absorbed Dose, Mean","[1]; Stomach Wall, cycle 1, 12 patients",0.02 Gy/GBq
same,"Absorbed Dose, Mean","[1]; Testes, cycle 1, 12 patients",0.02 Gy/GBq
same,"Absorbed Dose, Mean","[1]; Thymus, cycle 1, 12 patients",0.02 Gy/GBq
same,"dose estimate, Mean",[1]; Thyroid,0.02 Gy/GBq
same,"Absorbed Dose, Mean","[1]; Thyroid, cycle 1, 12 patients",0.02 Gy/GBq
same,"Absorbed Dose, Mean","[1]; Total Body, cycle 1, 12 patients",0.03 Gy/GBq
same,"Absorbed Dose, Mean","[1]; Urinary Bladder Wall, cycle 1, 12 patients",0.38 Gy/GBq
same,"dose estimate, Mean",[1]; Urinary bladder wall,0.38 Gy/GBq
same,Whole Body TIAC,"[1]; cycle 1, Mean of 12 subjects",24.1 h
same,Kidneys Absorbed Dose,"[1]; cycle 1, Mean of 12 subjects (Table 41)",0.43 Gy/GBq
same,Kidneys Absorbed Dose,"[1]; cycle 1, individual subjects (Table 41), listed as [^177Lu]Lu-PSMA-I&T",0.64 Gy/GBq and 0.34 Gy/GBq and 0.81 Gy/GBq and 0.29 Gy/GBq and 0.27 Gy/GBq (2×) and 0.22 Gy/GBq and 0.48 Gy/GBq and 0.32 Gy/GBq and 0.54 Gy/GBq and 0.41 Gy/GBq and 0.57 Gy/GBq
same,Whole Body TIAC,"[1]; cycle 1, individual subjects, listed as [^177Lu]Lu-PSMA-I&T",8.2 h and 17.2 h and 41.7 h and 14.4 h and 69.7 h and 43.7 h and 11.1 h and 12.6 h and 19.7 h and 14.2 h and 8.5 h and 27.6 h
same,Kidneys Absorbed Dose,"[1]; cycle 1, individual subjects, listed as [^177Lu]Lu-PSMA-I&T, absorbed dose per injected activity, Gy/GBq",0.27 Gy/GBq (2×) and 0.22 Gy/GBq and 0.48 Gy/GBq and 0.32 Gy/GBq and 0.54 Gy/GBq and 0.41 Gy/GBq and 0.57 Gy/GBq and 0.64 Gy/GBq and 0.34 Gy/GBq and 0.81 Gy/GBq and 0.29 Gy/GBq
same,Kidneys Absorbed Dose,"[1]; cycle 1, individual subjects, listed as [^177Lu]Lu-PSMA-I&T, total absorbed dose, Gy",2.00 Gy and 2.36 Gy and 3.99 Gy and 3.08 Gy and 4.48 Gy and 2.26 Gy
same,Extrapolation of Absorbed Dose to 6 Cycles Assuming 7.4 GBq per cycle,[1]; Mean of 12 subjects,19.3 Gy
same,Extrapolation of Absorbed Dose to 6 Cycles Assuming 7.4 GBq per cycle,[1]; [3],28.5 Gy and 15.0 Gy and 35.8 Gy and 13.0 Gy and 11.8 Gy and 9.9 Gy and 21.3 Gy and 12.0 Gy and 14.0 Gy and 23.8 Gy and 18.0 Gy and 25.1 Gy
same,Kidneys Absorbed Dose Assuming 7.4 GBq per cycle,[1]; Mean of 12 subjects,3.2 Gy
same,Kidneys Absorbed Dose Assuming 7.4 GBq per cycle,[1]; [3],4.8 Gy and 2.5 Gy and 6.0 Gy and 2.2 Gy and 2.0 Gy (2×) and 1.7 Gy and 3.6 Gy and 2.3 Gy and 4.0 Gy and 3.0 Gy and 4.2 Gy
same,Effective Dose Cycle 1,[1]; Mean of 12 subjects,0.09 mSv/MBq
same,Effective Dose Cycle 1,[1]; [3],0.03 mSv/MBq (2×) and 0.09 mSv/MBq and 0.12 mSv/MBq and 0.11 mSv/MBq (2×) and 0.16 mSv/MBq and 0.19 mSv/MBq and 0.07 mSv/MBq (2×) and 0.06 mSv/MBq and 0.08 mSv/MBq
same,adverse effects,[2],mainly transient adverse effects
